Where two headings read alike, the source gives them in different places.
Legend:
[1] = system: Mycobacterium tuberculosis strain H37Rv; experiment: Test 1: MIC determination, resazurin fluorescence, M. tuberculosis H37Rv; assay type: cell-based; conditions: for IC50: Mycobacterium tuberculosis, H37RV
[2] = system: Mycobacterium tuberculosis strain EH 4.0 (361.269); experiment: Test 4: MIC determination, resazurin fluorescence, strain EH 4.0; assay type: cell-based; conditions: for IC50: Mycobacterium tuberculosis, read-out: pIC50, Test 4, M. tuberculosis strain EH 4.0 (361.269) (converted); for pIC50: Test 4, M. tuberculosis strain EH 4.0 (361.269)
Excerpt: TEST 4 (See Also Test 1 Above; in this Test a Different Strain of Mycobacterium tuberculosis Strain is Employed)
Appropriate solutions of experimental and reference compounds were made in 96 well plates with 7H9 medium. Samples of Mycobacterium tuberculosis strain EH 4.0 (361.269) were taken from cultures in stationary growth phase. These were first diluted to obtain an optical density of 0.3 at 600 nm wavelength and then diluted 1/100, resulting in an inoculum of approximately 5×10 exp5 colony forming units per well. Plates were incubated at 37° C. in plastic bags to prevent evaporation. After 7 days, resazurin was added to all wells.

[3] = Test 1, M. tuberculosis H37Rv, first test, read-out: pIC50 (converted)
[4] = Test 1, repeated (2nd) test, read-out: pIC50 * (converted)
[5] = Test 1, repeated (3rd) test, read-out: pIC50 ** (converted)
[6] = Test 1, M. tuberculosis H37Rv, first test

SMILES | melting point [°C] | IC50 [1, 3] [µM] | IC50 [1, 4] [µM] | IC50 [1, 5] [µM] | IC50 [2] [µM] | other results
CCc1nc2ncc(Cl)cn2c1C(=O)NCc1ccc(N2CC3(CC(OC(F)F)C3)C2)cc1 | 163.21 |  |  |  |  | 
CCc1nc2ccc(Cl)cn2c1C(=O)NCc1ccc(C2CC3(C2)CN(c2ccc(OC(F)(F)F)cc2)C3)cc1 [Compound 2] |  | 0.0162 | 0.0148 | 0.0117 | 0.0501 | 
CCc1nc2ncc(Cl)cn2c1C(=O)NCc1ccc(C2CC3(C2)CN(c2ccc(OC(F)(F)F)cc2)C3)cc1 [Compound 3] |  | 0.0257 | 0.0263 | 0.0257 | 0.00501 | 
CCc1nc2n(c1C(=O)NCc1ccc(N3CC4(C3)CN(c3ccc(OC(F)(F)F)cc3)C4)cc1)CCCC2 [Compound 6] |  | 0.141 | 0.102 | 0.129 | 0.0251 | 
CCc1nc2ccc(Cl)cn2c1C(=O)NCc1ccc(N2CC3(CC(c4ccc(OC(F)(F)F)cc4)C3)C2)cc1 [Compound 7] |  | 0.1 | 0.0759 | 0.0794 | 0.0158 | 
CCc1nc2ncc(Cl)cn2c1C(=O)NCc1ccc(N2CC3(CC(c4ccc(OC(F)(F)F)cc4)C3)C2)cc1 [Compound 8] |  | 0.148 | 0.186 | 0.17 | 0.0501 | 
CCc1nc2ncc(Cl)cn2c1C(=O)NCc1ccc(N2CC3(CC(c4ccccc4)C3)C2)cc1 [Compound 9] |  | 0.0832 | 0.0724 | 0.0537 | 0.0126 | 
CCc1nc2ccc(Cl)cn2c1C(=O)NCc1ccc(N2CC3(CC(c4ccc(S(F)(F)(F)(F)F)cc4)C3)C2)cc1 [Compound 10] |  | 0.148 | 0.141 | 0.107 | 0.0316 | 
CCc1nc2ncc(Cl)cn2c1C(=O)NCc1ccc(N2CC3(CC(c4cccnc4)C3)C2)cc1 [Compound 11] |  | 1.86 | 3.02 | 1.2 | 0.794 | 
Cc1nc2sc(Br)cn2c1C(=O)NCc1ccc(N2CC3(CCC3)C2)cc1 [Compound 13] |  | 0.269 | 0.257 | 0.263 | 0.0316 | 
CCc1nc2ccc(Cl)cn2c1C(=O)NCC1CCC2(CCN(c3ccc(OC(F)(F)F)cc3)CC2)CO1 (stereo not shown) [Compound 14] |  | 2.82 | 2.95 |  | 0.398 | 
CCc1nc2ccc(Cl)cn2c1C(=O)NCC1CC2(CCN(c3ccc(OC(F)(F)F)cc3)CC2)C1 [Compound 15] |  | 0.102 | 0.0955 |  | 0.158 | 
CCc1nc2ccc(Cl)cn2c1C(=O)NCc1ccc(N2CC3(CC(F)C3)C2)cc1 [Compound 16] |  |  |  |  |  | pIC50 [1, 6]: 6.55; pIC50 * ([1]; Test 1, repeated (2nd) test): 6.61; pIC50 [2]: 8.0
CCc1nc2ccc(Cl)cn2c1C(=O)NCc1ccc(N2CC3(CC(F)C3)C2)cc1 [Compound 17] |  |  | 0.316 | 0.468 |  | pIC50 [1, 6]: 7.82; pIC50 [2]: 7.4
CCc1nc2sc(C)cn2c1C(=O)NCc1ccc(N2CC3(CC(F)C3)C2)cc1 [Compound 18] |  | 0.191 | 0.123 | 0.126 | 0.0316 | 
CCc1nc2n(c1C(=O)NCc1ccc(N3CC4(CC(F)C4)C3)cc1)CCCC2 [Compound 19] |  | 0.794 | 1.15 | 1.07 | 1.26 | 
CCc1nc2sc(C)cn2c1C(=O)NCc1ccc(N2CC3(CC(O)C3)C2)cc1 [Compound 20] | 300 |  |  |  | 0.316 | 
CCc1nc2sc(C)cn2c1C(=O)NCc1ccc(N2CC3(CC(=O)C3)C2)cc1 [Compound 21] |  |  |  |  | 0.1 | IC50 ([1]; read-out: pIC50 (converted)): 2.45 µM; IC50 ([1]; read-out: pIC50 * (converted)): 1.05 µM; IC50 ([1]; read-out: pIC50 ** (converted)): 1.38 µM
Cc1nc2sccn2c1C(=O)NCc1ccc(N2CC3(CC(c4ccc(OC(F)(F)F)cc4)C3)C2)cc1 [Compound 24] |  |  |  |  | 0.251 | IC50 ([1]; read-out: pIC50 (converted)): 0.2 µM; IC50 ([1]; read-out: pIC50 * (converted)): 0.275 µM; IC50 ([1]; read-out: pIC50 ** (converted)): 0.115 µM
CCc1nc2sc(C)cn2c1C(=O)NCc1ccc(N2CC3(COC3)C2)cc1 [Compound 27] |  | 4.07 | 4.17 | 2.88 | 0.398 | 
CCc1nc2ccc(Cl)cn2c1C(=O)NCc1ccc(N2CC3(CCN(c4ccc(OC(F)(F)F)cc4)CC3)C2)cc1 [Compound 28] |  | 6.03 | 7.59 | 7.41 | 0.00316 | 
CCc1nc2ccc(Cl)cn2c1C(=O)NC1CCC2(CC1)CCN(c1ccc(OC(F)(F)F)cc1)CC2 [Compound 29] |  | 7.94 | 6.76 | 7.08 | 7.94 | 
Cc1nc2sccn2c1C(=O)NCc1ccc(N2CC3(COC3)C2)cc1 [Compound 30] |  | 8.91 | > 12.6 | 11 | 7.94 | 
CCc1c(C(=O)NCc2ccc(N3CC4(CC(F)C4)C3)cc2)c2ccncc2n1C [Compound 31] |  | > 12.6 | > 12.6 | > 12.6 | > 12.6 | 
CCc1nc2sc(C)cn2c1C(=O)NCc1ccc(N2CC3(C2)CN(c2ccc(OC(F)(F)F)cc2)C3)cc1 [Compound 68] | 180.57 |  |  |  | 0.0631 | 

SMILES | melting point [°C] | IC50 [1, 3] [µM] | IC50 [1, 4] [µM] | IC50 [1, 5] [µM] | IC50 [2] [µM] | other results
CCc1nc2ccc(Cl)cn2c1C(=O)NCc1ccc(N2CCC3(C2)CN(c2ccc(OC(F)(F)F)cc2)C3)cc1 [Compound 75] | 183.86 |  |  |  | 0.0158 | 
CCc1nc2ccc(Cl)cn2c1C(=O)NCc1ccc(N2CC3(CCN(c4ccc(OC(F)(F)F)cc4)C3)C2)cc1 [Compound 76] | 136.04 |  |  |  | 0.0251 | 
CCc1nc2n(c1C(=O)NCc1ccc(N3CC4(CC(c5ccc(OC(F)(F)F)cc5)C4)C3)cc1)CCCC2 [Compound 82] | 190.78 |  |  |  | 0.0631 | 
CCc1nc2sc(C)cn2c1C(=O)NCc1ccc(N2CC3(CC(c4ccc(OC(F)(F)F)cc4)C3)C2)cc1 [Compound 83] | 108.84 |  |  |  | 0.1 | 
CCc1nc2ccc(Cl)cn2c1C(=O)NCc1ccc(N2CC3(CC(OC)C3)C2)cc1 [Compound 84] | 137.48 |  |  |  | 0.1 | 
CCc1nc2n(c1C(=O)NCc1ccc(N3CC4(CC(OC)C4)C3)cc1)CCCC2 [Compound 85] | 147.41 |  |  |  | 1 | 
CCc1nc2ncc(Cl)cn2c1C(=O)NCc1ccc(N2CC3(CC(OC)C3)C2)cc1 [Compound 86] | 127.22 |  |  |  | 0.158 | 
CCc1nc2ccc(Cl)cn2c1C(=O)NCc1ccc(N2CC3(CC(c4ccc(OC)c(F)c4)C3)C2)cc1 [Compound 87] | 190.35 |  |  |  | 0.251 | 
CCc1nc2ncc(Cl)cn2c1C(=O)NCc1ccc(N2CC3(CC(c4ccc(OC)c(F)c4)C3)C2)cc1 [Compound 88] | 156.54 |  |  |  | 0.251 | 
CCc1nc2ccc(Cl)cn2c1C(=O)NCc1ccc(N2CC3(CC(c4ccncc4)C3)C2)cc1 [Compound 89] | 192.86 |  |  |  | 6.31 | 
CCc1nc2ccc(Cl)cn2c1C(=O)NCc1ccc(N2CC3(CN(C(C)=O)C3)C2)cc1 [Compound 90] | 237.63 |  |  |  | 12.6 | 
CCc1nc2ccc(Cl)cn2c1C(=O)NCc1ccc(N2CC3(CN(C(=O)c4ccccc4)C3)C2)cc1 [Compound 91] | 204.21 |  |  |  | 10 | 
CCc1nc2ccc(Cl)cn2c1C(=O)NCc1ccc(C2CC3(C2)CN(C(=O)C(F)(F)F)C3)cc1 [Compound 92] | 80.75 |  |  |  | 0.251 | 
CCc1nc2ccc(Cl)cn2c1C(=O)NCc1ccc(N2CC3(C2)CC2(C3)OCCCO2)cc1 [Compound 95] | 154.23 |  |  |  | 0.158 | 
CCc1nc2ccc(Cl)cn2c1C(=O)NCc1ccc(N2CC3(CC(=O)C3)C2)cc1 [Compound 96] | 182.82 |  |  |  | 0.126 | 
CCc1nc2ccc(Cl)cn2c1C(=O)NCc1ccc(N2CC3(CC(OC(F)(F)F)C3)C2)cc1 [Compound 117] | 167.85 |  |  |  | 0.02 | 
Cc1nc2sc(F)cn2c1C(=O)NCc1ccc(N2CC3(CC(=O)C3)C2)cc1 [Compound 118] | 201.34 |  |  |  | 12.6 | 
CCc1nc2ccc(Cl)cn2c1C(=O)NCc1ccc(C2CC3(C2)CN(c2cccnc2)C3)cc1 [Compound 119] | 147.85 |  |  |  | 0.631 | 
CCc1nc2ccc(Cl)cn2c1C(=O)NCc1ccc(N2CC3(CC(c4ccccn4)C3)C2)cc1 [Compound 120] | 139.57 |  |  |  | 10 | 
CCc1nc2ncc(Cl)cn2c1C(=O)NCc1ccc(N2CC3(C2)CN(c2cccnc2)C3)cc1 [Compound 121] | 241.08 |  |  |  | 2.51 | 
CCc1nc2ncc(Cl)cn2c1C(=O)NCc1ccc(C2CC3(C2)CN(c2cccnc2)C3)cc1 [Compound 122] | 161.23 |  |  |  | 0.794 | 
CCc1nc2ccc(Cl)cn2c1C(=O)NCc1ccc(N2CC3(CC(n4cncn4)C3)C2)cc1 [Compound 123] | 166.63 |  |  |  | 1.58 | 
CCc1nc2ccc(Cl)cn2c1C(=O)NCc1ccc(N2CC3(CC(c4nccs4)C3)C2)cc1 [Compound 124] | 135.97 |  |  |  | 0.0794 | pIC50 [2]: 7.2
CCc1nc2ccc(Cl)cn2c1C(=O)NCc1ccc(N2CCC3(CC2)CC(F)(F)C3)cc1 [Compound 125] | 146.77 |  |  |  | 0.002 | 
